# Experimental data as given in patent publication US20060062758A1, “Tight junction modulator peptide PN159 for enhanced mucosal delivery of therapeutic compounds” (Nastech Pharmaceutical Comapny Inc., priority 2004, published 2006).
# How the values were obtained:
# [1] = Intranasal PYY plasma pharmacokinetics in rabbits; type: in vivo, New Zealand White rabbits; conditions: for plasma concentration of PYY: average of 4 animals; for Relative AUC last / Relative Cmax / AUCINF, Mean / AUClast, Mean: plasma PYY; for Relative AUC last / Relative Cmax: compared with Group 2 (no enhancer) formulation
# Method: 20 male New Zealand White rabbits age 3-6 months and weighing 2.1-3.0 kg were randomly assigned into one of 5 treatment groups with four animals per group. Test animals were dosed at 15 μl/kg and intranasally via pipette. Table 4 below indicates the composition of five different dose groups.
# For dosing group 1 (see Table 1) a clinical formulation of PYY including small molecule permeation enhancers was used. The small molecule enhancers in these studies included methyl-βcyclodextrin, phosphatidylcholine didecanoyl (DDPC), and/or EDTA. Dosing group 2 received PYY dissolved in phosphate buffered saline (PBS).
# Serial blood samples (about 2 ml each) were collected by direct venipuncture from a marginal ear vein into blood collection tubes containing EDTA as an anticoagulant. Blood samples were collected at 0, 2.5, 5, 10, 15, 30, 45, 60, and 120 minutes post-dosing. After collection of the blood, the tubes were gently rocked several times for anti-coagulation, and then 50 μl aprotinin solution was added. The blood was centrifuged at approximately 1,600×g for 15 minutes at approximately 4° C., and plasma samples were dispensed into duplicate aliquots and stored frozen at approximately −70° C.
# [2] = test system: EpiAirway™ Cell Membrane (mucosal epithelial cell layer); experiment: Permeation kinetics across the in vitro epithelial tissue model; conditions: for Perm(x)/Perm(159) +/− SEM*: mean values from multiple repeats; for PTH1-34 permeation: 2 mg/ml PTH, pH 4.5
# Method: The EpiAirway™ system was developed by MatTek Corp (Ashland, Mass.) as a model of the pseudostratified epithelium lining the respiratory tract. The epithelial cells are grown on porous membrane-bottomed cell culture inserts at an air-liquid interface, which results in differentiation of the cells to a highly polarized morphology. The apical surface is ciliated with a microvillous ultrastructure and the epithelium produces mucus (the presence of mucin has been confirmed by immunoblotting). The inserts have a diameter of 0.875 cm, providing a surface area of 0.6 cm^2. The cells are plated onto the inserts at the factory approximately three weeks before shipping. One “kit” consists of 24 units.
# A. A “kit” of 24 EpiAirway™ units can routinely be employed for evaluating five different formulations, each of which is applied to quadruplicate wells. Each well is employed for determination of permeation kinetics (4 time points), transepithelial electrical resistance (TER). An additional set of wells is employed as controls, which are sham treated during determination of permeation kinetics, but are otherwise handled identically to the test sample-containing units for determinations of transepithelial resistance and viability.
# B. In all experiments, the mucosal delivery formulation to be studied is applied to the apical surface of each unit in a volume of 100 μL, which is sufficient to cover the entire apical surface. An appropriate volume of the test formulation at the concentration applied to the apical surface (no more than 100 μL is generally needed) is set aside for subsequent determination of concentration of the active material by ELISA or other designated assay.
# D. In order to minimize potential sources of error and avoid any formation of concentration gradients, the units are transferred from one 0.9 mL-containing well to another at each time point in the study. These transfers are made at the following time points, based on a zero time at which the 100 μL volume of test material was applied to the apical surface: 15 minutes, 30 minutes, 60 minutes, and 120 minutes.
# F. At the completion of each time point, the medium is removed from the well from which each unit was transferred, and aliquotted into two tubes (one tube receives 700 μL and the other 200 μL) for determination of the concentration of permeated test material and, in the event that the test material is cytotoxic, for release of the cytosolic enzyme, lactate dehydrogenase, from the epithelium. These samples are kept in the refrigerator if the assays are to be conducted within 24 hours, or the samples are subaliquotted and kept frozen at −80° C. until thawed once for assays. Repeated freeze-thaw cycles are to be avoided.
# EIA kit (p/n S-1178(EIAH6101) was purchased from Peninsula Laboratories Inc. (Division of BACHEM, San Carlos, Calif., 800-922-1516). 17×120 mm polypropylene conical tubes (p/n 352097, Falcon, Franklin Lakes, N.J.) were used for all sample preparations. Eight standards were used for PTH quantitation. The rest of the assay procedure was the same as the kit inserts.
# The instant study was designed to evaluate the effect of PN159 itself or in combination with additional permeation enhancers on PTH permeation. The PN159 concentrations evaluated are 25, 50, and 100 μM. The additional permeation enhancers are 45 mg/ml M-β-CD, 1 mg/ml DDPC, and 1 mg/ml EDTA. Sorbitol was used as a tonicifier (146-190 mM) to adjust the osmolarity of formulations to 220 mOsm/kg. The formulation pH was fixed at 4.5. PTH was chosen as a model peptide in this example. 2 mg/ml PTH was combined with PN159 with or without additional permeation enhancers. The combination was tested using an in vitro epithelial tissue model to monitor PTH permeation, transepithelial electrical resistance (TER), and the cytotoxicity of the formulation by LDH assay.
# The effect of PN159 on permeation of MC-4RA was evaluated in this study.
# [3] = MTT assay (cell viability), in vitro epithelial tissue model; type: cell-based; conditions: human, pH 5; galantamine lactate 40 mg/ml and PN159 at all concentrations tested (25, 50, 100 μM)
# [4] = intranasal PYY 205 μg/kg in PBS with 25 μM PN159 (Group 3)
# [5] = intranasal PYY 205 μg/kg in PBS with 50 μM PN159 (Group 4)
# [6] = intranasal PYY 205 μg/kg in PBS with 100 μM PN159 (Group 5)
structure (smiles),measurement,setting,value
CC(C)C[C@H](NC(=O)[C@H](C)NC(=O)[C@H](CCCCN)NC(=O)[C@H](CC(C)C)NC(=O)[C@H](C)NC(=O)[C@H](CC(C)C)NC(=O)[C@H](CCCCN)NC(=O)[C@H](CC(C)C)NC(=O)[C@H](C)NC(=O)[C@H](CC(C)C)NC(=O)[C@@H](N)CCCCN)C(=O)N[C@@H](CCCCN)C(=O)N[C@@H](C)C(=O)N[C@@H](C)C(=O)N[C@@H](CC(C)C)C(=O)N[C@@H](CCCCN)C(=O)N[C@@H](CC(C)C)C(=O)N[C@@H](C)C(N)=O [PN159],plasma concentration of PYY,"[1]; 0 min post-dosing, intranasal PYY 205 μg/kg in PBS with 25 μM PN159",228.675
same,plasma concentration of PYY,"[1]; 0 min post-dosing, intranasal PYY 205 μg/kg in PBS with 50 μM PN159",424.4
same,plasma concentration of PYY,"[1]; 0 min post-dosing, intranasal PYY 205 μg/kg in PBS with 100 μM PN159",294.225
same,plasma concentration of PYY,"[1]; 2.5 min post-dosing, intranasal PYY 205 μg/kg in PBS with 25 μM PN159",526.375
same,plasma concentration of PYY,"[1]; 2.5 min post-dosing, intranasal PYY 205 μg/kg in PBS with 50 μM PN159",749.975
same,plasma concentration of PYY,"[1]; 2.5 min post-dosing, intranasal PYY 205 μg/kg in PBS with 100 μM PN159",1748.225
same,plasma concentration of PYY,"[1]; 5 min post-dosing, intranasal PYY 205 μg/kg in PBS with 25 μM PN159",1430.15
same,plasma concentration of PYY,"[1]; 5 min post-dosing, intranasal PYY 205 μg/kg in PBS with 50 μM PN159",1293.4
same,plasma concentration of PYY,"[1]; 5 min post-dosing, intranasal PYY 205 μg/kg in PBS with 100 μM PN159",3088.2
same,plasma concentration of PYY,"[1]; 10 min post-dosing, intranasal PYY 205 μg/kg in PBS with 25 μM PN159",6521.7
same,plasma concentration of PYY,"[1]; 10 min post-dosing, intranasal PYY 205 μg/kg in PBS with 50 μM PN159",12517.2
same,plasma concentration of PYY,"[1]; 10 min post-dosing, intranasal PYY 205 μg/kg in PBS with 100 μM PN159",14486.6
same,plasma concentration of PYY,"[1]; 15 min post-dosing, intranasal PYY 205 μg/kg in PBS with 25 μM PN159",12563.075
same,plasma concentration of PYY,"[1]; 15 min post-dosing, intranasal PYY 205 μg/kg in PBS with 50 μM PN159",34455.3
same,plasma concentration of PYY,"[1]; 15 min post-dosing, intranasal PYY 205 μg/kg in PBS with 100 μM PN159",20882.725
same,plasma concentration of PYY,"[1]; 30 min post-dosing, intranasal PYY 205 μg/kg in PBS with 25 μM PN159",15222.6
same,plasma concentration of PYY,"[1]; 30 min post-dosing, intranasal PYY 205 μg/kg in PBS with 50 μM PN159",35294.375
same,plasma concentration of PYY,"[1]; 30 min post-dosing, intranasal PYY 205 μg/kg in PBS with 100 μM PN159",25470.475
same,plasma concentration of PYY,"[1]; 45 min post-dosing, intranasal PYY 205 μg/kg in PBS with 25 μM PN159",9081.125
same,plasma concentration of PYY,"[1]; 45 min post-dosing, intranasal PYY 205 μg/kg in PBS with 50 μM PN159",21582.225
same,plasma concentration of PYY,"[1]; 45 min post-dosing, intranasal PYY 205 μg/kg in PBS with 100 μM PN159",16499.55
same,plasma concentration of PYY,"[1]; 60 min post-dosing, intranasal PYY 205 μg/kg in PBS with 25 μM PN159",4843.15
same,plasma concentration of PYY,"[1]; 60 min post-dosing, intranasal PYY 205 μg/kg in PBS with 50 μM PN159",9461.925
same,plasma concentration of PYY,"[1]; 60 min post-dosing, intranasal PYY 205 μg/kg in PBS with 100 μM PN159",10676.625
same,plasma concentration of PYY,"[1]; 120 min post-dosing, intranasal PYY 205 μg/kg in PBS with 25 μM PN159",1224.2
same,plasma concentration of PYY,"[1]; 120 min post-dosing, intranasal PYY 205 μg/kg in PBS with 50 μM PN159",2337.775
same,plasma concentration of PYY,"[1]; 120 min post-dosing, intranasal PYY 205 μg/kg in PBS with 100 μM PN159",1891.275
same,Relative AUC last,"[1]; PN159, 25 μm (Group 3)",21x
same,Relative Cmax,"[1]; PN159, 25 μm (Group 3)",30x
same,Relative AUC last,"[1]; PN159, 50 μm (Group 4)",46x
same,Relative Cmax,"[1]; PN159, 50 μm (Group 4)",79x
same,Relative AUC last,"[1]; PN159, 100 μm (Group 5)",38x
same,Relative Cmax,"[1]; PN159, 100 μm (Group 5)",54x
same,"AUCINF, Mean",[1]; [4],796354.7 pg·min/mL
same,"AUClast, Mean",[1]; [4],748104.1 pg·min/mL
same,"AUCINF, Mean",[1]; [5],1787348 pg·min/mL
same,"AUClast, Mean",[1]; [5],1692499 pg·min/mL
same,"AUCINF, Mean",[1]; [6],1518949 pg·min/mL
same,"AUClast, Mean",[1]; [6],1384241 pg·min/mL
same,Perm(x)/Perm(159) +/− SEM*,"[2]; Example 7, length changes, relative to PN159",1.00
same,permeation of MC-4RA,"[2]; PN159 5, 25, 50, 100 μM, 10 mg/ml MC-4RA, 45 mg/ml M-β-CD, pH 4",significantly enhance epithelial permeation
same,PTH1-34 permeation,"[2]; PN159 25, 50, 100 μM without additional enhancers",Significant increase in PTH permeation
same,PTH1-34 permeation,[2]; PN159 combined with 45/1/1 mg/ml M-b-CD/DDPC/EDTA,Additional increase in PTH permeation
same,Perm(x)/Perm(159) +/− SEM,"[2]; Table 6, D-amino acid substitutions, relative to PN159",1.00 +/− 0.13
same,Perm(x)/Perm(159) +/− SEM*,"[2]; Table 9, hydrophobic faces, relative to PN159",1.00 +/− 0.13
same,viability,[3],> 80%
